Data from patent publication US20210299079A1, “MONOMETHYL FUMARATE-CARRIER CONJUGATES AND METHODS OF THEIR USE” (Flagship Pioneering Innovations V, Inc., priority 2018, published 2021).
Structures can show the parent of a compound that is named as a salt.

Assays:
[1] = tested on: experimental autoimmune encephalomyelitis (EAE); test: In Vivo EAE Model of Multiple Sclerosis; set-up: species or system C57BL/6J mice; conditions: Study 2, oral, amount approximately equimolar to 100 mg/kg DMF, 28 days
Protocol: For experimental autoimmune encephalomyelitis (EAE) study, 8- to 11-week-old C57BL/6J mice were anesthetized and subcutaneously injected with […] and […]. Pertussis toxin (200 ng/mouse) was applied i.p. on days 0. Daily clinical evaluation was performed via a 5-point scale, and the clinical progression was observed over 28 days (FIG. 2A). […] At the end of the study, flow cytometry analysis was performed on the spleen (n=8 per group). […] Statistical analysis was performed with GraphPad Prism (GraphPad Software). Unpaired t test was used to assess significance between the control (Vehicle) and each treatment group. For experimental autoimmune encephalomyelitis (EAE) studies, 8- to 11-week old C57BL/6J mice were anesthetized and subcutaneously injected with […] and […]. Pertussis toxin (200 ng/mouse) was applied intraperitoneally on day 0. Daily clinical evaluation as performed using a 5-point scale and the clinical progression was observed over 28 days (FIGS. 2C and 2D).

[2] = Stability of conjugates in Simulated Gastric Fluid (SGF); assay type: in vitro ADME; conditions: SGF pH 1.6 with pepsin, 37° C., 1 μM compound
How it was run: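 Compound at 1 μM (from 1 mM DMSO stock) in pH 1.6 NaCl medium with FaSSIF powder and 0.1 mg/mL pepsin, mixed at 37° C. Aliquots quenched with equal volume acetonitrile at T0 and regular intervals; LC/MS gives degradation rate.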

[3] = Stability of conjugates in Simulated Intestinal Fluid (SIF); assay type: in vitro ADME; conditions: SIF pH 6.7 with pancreatin, 37° C., 1 μM compound
How it was run: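 Compounds at 1 μM in fresh simulated intestinal fluid: FaSSIF powder in pH 6.7 phosphate buffer with pancreatin. Agitated at 37 °C; aliquots taken at T0 and regular intervals, quenched with 1 volume acetonitrile. Degradation rates determined by LC/MS.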

[4] = In vitro Colonic Material Stability Assay; assay type: in vitro ADME; conditions: colonic material slurry in YCFAC media, anaerobic, 1 or 10 μM
How it was run: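 Anaerobically, a colonic material slurry (15% w/v) was inoculated into YCFAC or other suitable media. Compounds were added at 1 or 10 μM final. Samples taken at 0–2880 min were quenched with acetonitrile containing internal standard and analysed by LC/MS.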

CCC(=O)OC[C@H]1O[C@@H](OC(=O)/C=C/C(=O)OC)[C@H](OC(=O)CC)[C@@H](OC(=O)CC)[C@@H]1OC(=O)CC [Compound 3, Methyl ((2S,3R,4S,5R,6R)-3,4,5-tris(propionyloxy)-6-((propionyloxy)methyl)tetrahydro-2H-pyran-2-yl) fumarate]
EAE score (5-point scale) compared to control (vehicle only) [1]: lower EAE scores | EAE score (5-point scale) compared to mice treated with dimethyl fumarate [1]: lower or similar EAE scores | Assay 1 (SGF) (% Remaining @ 1 hour) [2]: C (C: >75% of the tested compound remaining) | Assay 2 (SIF) (% @ Remaining 4 hours) [3]: B (B: 25-75% of the tested compound remaining) | Assay 3 (% Remaining at 24 h) [4]: C (C: >75% of the tested compound remaining)

CCCC(=O)O[C@@H]1[C@@H](OC(=O)CCC)[C@H](C)O[C@@H](OC(=O)/C=C/C(=O)OC)[C@@H]1OC(=O)CCC [Compound 15, Methyl ((2S,3R,4R,5S,6S)-3,4,5-tris(butyryloxy)-6-methyltetrahydro-2H-pyran-2-yl) fumarate]
EAE score (5-point scale) compared to control (vehicle only) [1]: lower EAE scores | Assay 1 (SGF) (% Remaining @ 1 hour) [2]: B (B: 25-75% of the tested compound remaining) | Assay 2 (SIF) (% @ Remaining 4 hours) [3]: A (A: <25% of the tested compound remaining) | Assay 3 (% Remaining at 24 h) [4]: C (C: >75% of the tested compound remaining)

CCC(=O)O[C@H]1[C@H](OC(=O)CC)[C@H](OC(=O)/C=C/C(=O)OC)O[C@@H](C)[C@H]1OC(=O)CC [Compound 1, Methyl ((2S,3S,4R,5R,6S)-6-methyl-3,4,5-tris(propionyloxy)tetrahydro-2H-pyran-2-yl) fumarate]
EAE score (5-point scale) compared to control (vehicle only) [1]: lower EAE scores | Assay 1 (SGF) (% Remaining @ 1 hour) [2]: C (C: >75% of the tested compound remaining) | Assay 3 (% Remaining at 24 h) [4]: C (C: >75% of the tested compound remaining)

CCC(=O)O[C@@H]1[C@@H](OC(=O)CC)[C@H](OC(=O)/C=C/C(=O)OC)OC[C@H]1OC(=O)CC [Compound 20, Methyl ((2S,3R,4S,5R)-3,4,5-tris(propionyloxy)tetrahydro-2H-pyran-2-yl) fumarate]
EAE score (5-point scale) compared to control (vehicle only) [1]: lower EAE scores | Assay 1 (SGF) (% Remaining @ 1 hour) [2]: C (C: >75% of the tested compound remaining) | Assay 2 (SIF) (% @ Remaining 4 hours) [3]: A (A: <25% of the tested compound remaining) | Assay 3 (% Remaining at 24 h) [4]: C (C: >75% of the tested compound remaining)

CCCC(=O)O[C@H]1[C@H](OC(=O)/C=C/C(=O)OC)OC[C@@H](OC(=O)CCC)[C@H]1OC(=O)CCC [Compound 24, Methyl ((2S,3R,4R,5R)-3,4,5-tris(butyryloxy)tetrahydro-2H-pyran-2-yl) fumarate]
EAE score (5-point scale) compared to control (vehicle only) [1]: lower EAE scores | Assay 1 (SGF) (% Remaining @ 1 hour) [2]: C (C: >75% of the tested compound remaining) | Assay 2 (SIF) (% @ Remaining 4 hours) [3]: A (A: <25% of the tested compound remaining)
